Columns and labels:
[1] = molecular target: Calcium/calmodulin-dependent protein kinase kinase 2 (Homo sapiens) (UniProt Q96RR4); conditions: Compound concentration 1000.0 nM
[2] = molecular target: Tyrosine-protein kinase BTK (Homo sapiens) (UniProt Q06187); conditions: Compound concentration 1000.0 nM
[3] = molecular target: Mitogen-activated protein kinase kinase kinase 19 (Homo sapiens) (UniProt Q56UN5); conditions: Compound concentration 1000.0 nM
[4] = molecular target: Fibroblast growth factor receptor 1 (Homo sapiens) (UniProt P11362); conditions: Compound concentration 1000.0 nM
[5] = system: Epidermal growth factor receptor (Homo sapiens), P00533 [G719C]; conditions: Compound concentration 1000.0 nM
[6] = molecular target: Ribosomal protein S6 kinase alpha-3 (Homo sapiens) (UniProt P51812); conditions: Compound concentration 1000.0 nM
[7] = molecular target: Histamine H2 receptor (Homo sapiens) (UniProt P25021); conditions: Compound concentration 10.0 uM
Chain of Histamine H2 receptor (Homo sapiens) (P25021 whole entry): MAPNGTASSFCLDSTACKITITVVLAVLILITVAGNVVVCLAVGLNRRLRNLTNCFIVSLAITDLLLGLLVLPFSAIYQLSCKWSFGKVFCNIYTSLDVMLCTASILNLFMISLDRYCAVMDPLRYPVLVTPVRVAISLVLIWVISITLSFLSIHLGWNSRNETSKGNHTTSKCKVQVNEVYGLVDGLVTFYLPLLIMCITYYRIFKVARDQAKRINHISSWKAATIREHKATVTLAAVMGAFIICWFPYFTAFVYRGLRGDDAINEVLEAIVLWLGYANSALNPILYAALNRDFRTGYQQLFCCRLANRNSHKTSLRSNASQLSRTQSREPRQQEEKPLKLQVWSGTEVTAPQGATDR

[8] = molecular target: Interferon-induced, double-stranded RNA-activated protein kinase (Homo sapiens) (UniProt P19525); conditions: Compound concentration 1000.0 nM
[9] = system: Mast/stem cell growth factor receptor Kit (Homo sapiens), P10721 [V559D,T670I]; conditions: Compound concentration 1000.0 nM
[10] = molecular target: Mitogen-activated protein kinase kinase kinase kinase 5 (Homo sapiens) (UniProt Q9Y4K4); conditions: Compound concentration 1000.0 nM
[11] = molecular target: Casein kinase I isoform epsilon (Homo sapiens) (UniProt P49674); conditions: Compound concentration 1000.0 nM
[12] = molecular target: Serine/threonine-protein kinase Nek3 (Homo sapiens) (UniProt P51956); conditions: Compound concentration 1000.0 nM
[13] = molecular target: Serine/threonine-protein kinase PknB (Mycobacterium tuberculosis) (UniProt P9WI81); conditions: Compound concentration 1000.0 nM
[14] = molecular target: LIM domain kinase 2 (Homo sapiens) (UniProt P53671); conditions: Compound concentration 1000.0 nM
[15] = molecular target: Non-receptor tyrosine-protein kinase TYK2 (Homo sapiens) (UniProt P29597); conditions: Compound concentration 1000.0 nM
[16] = molecular target: Phosphatidylinositol 3-kinase catalytic subunit type 3 (Homo sapiens) (UniProt Q8NEB9); conditions: Compound concentration 1000.0 nM
[17] = system: Phosphatidylinositol 4,5-bisphosphate 3-kinase catalytic subunit alpha isoform (Homo sapiens), P42336 [I800L]; conditions: Compound concentration 1000.0 nM
Chain of Phosphatidylinositol 4,5-bisphosphate 3-kinase catalytic subunit alpha isoform (Homo sapiens), P42336 [I800L] (P42336 whole entry I800L, canonical isoform): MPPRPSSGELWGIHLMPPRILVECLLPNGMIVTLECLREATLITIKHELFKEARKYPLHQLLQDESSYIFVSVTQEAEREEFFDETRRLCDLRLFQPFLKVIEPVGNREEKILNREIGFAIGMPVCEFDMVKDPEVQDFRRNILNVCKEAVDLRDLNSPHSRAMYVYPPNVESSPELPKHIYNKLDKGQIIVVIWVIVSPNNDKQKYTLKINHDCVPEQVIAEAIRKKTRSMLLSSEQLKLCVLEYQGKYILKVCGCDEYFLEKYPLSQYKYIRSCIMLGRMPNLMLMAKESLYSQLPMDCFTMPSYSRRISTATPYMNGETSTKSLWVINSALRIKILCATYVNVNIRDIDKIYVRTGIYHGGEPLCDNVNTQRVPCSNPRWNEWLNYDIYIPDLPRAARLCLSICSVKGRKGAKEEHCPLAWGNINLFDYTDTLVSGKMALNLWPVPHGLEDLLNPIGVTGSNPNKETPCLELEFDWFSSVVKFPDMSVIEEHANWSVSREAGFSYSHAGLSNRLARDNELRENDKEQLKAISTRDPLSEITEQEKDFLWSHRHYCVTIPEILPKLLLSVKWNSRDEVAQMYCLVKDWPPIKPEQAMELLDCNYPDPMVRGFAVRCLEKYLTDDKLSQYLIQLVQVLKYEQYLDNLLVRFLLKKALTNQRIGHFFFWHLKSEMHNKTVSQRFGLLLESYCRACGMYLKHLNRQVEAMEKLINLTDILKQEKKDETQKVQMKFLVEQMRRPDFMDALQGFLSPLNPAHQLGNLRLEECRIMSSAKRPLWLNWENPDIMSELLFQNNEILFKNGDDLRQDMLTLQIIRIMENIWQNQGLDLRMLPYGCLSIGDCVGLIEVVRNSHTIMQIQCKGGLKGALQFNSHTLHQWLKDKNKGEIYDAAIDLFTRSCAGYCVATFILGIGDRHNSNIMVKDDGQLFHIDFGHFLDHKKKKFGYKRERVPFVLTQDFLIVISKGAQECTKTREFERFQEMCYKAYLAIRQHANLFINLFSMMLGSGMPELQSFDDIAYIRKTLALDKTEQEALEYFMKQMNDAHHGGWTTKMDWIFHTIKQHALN

[18] = molecular target: Mitogen-activated protein kinase kinase kinase 13 (Homo sapiens) (UniProt O43283); conditions: Compound concentration 1000.0 nM
Chain of Mitogen-activated protein kinase kinase kinase 13 (Homo sapiens) (O43283 whole entry): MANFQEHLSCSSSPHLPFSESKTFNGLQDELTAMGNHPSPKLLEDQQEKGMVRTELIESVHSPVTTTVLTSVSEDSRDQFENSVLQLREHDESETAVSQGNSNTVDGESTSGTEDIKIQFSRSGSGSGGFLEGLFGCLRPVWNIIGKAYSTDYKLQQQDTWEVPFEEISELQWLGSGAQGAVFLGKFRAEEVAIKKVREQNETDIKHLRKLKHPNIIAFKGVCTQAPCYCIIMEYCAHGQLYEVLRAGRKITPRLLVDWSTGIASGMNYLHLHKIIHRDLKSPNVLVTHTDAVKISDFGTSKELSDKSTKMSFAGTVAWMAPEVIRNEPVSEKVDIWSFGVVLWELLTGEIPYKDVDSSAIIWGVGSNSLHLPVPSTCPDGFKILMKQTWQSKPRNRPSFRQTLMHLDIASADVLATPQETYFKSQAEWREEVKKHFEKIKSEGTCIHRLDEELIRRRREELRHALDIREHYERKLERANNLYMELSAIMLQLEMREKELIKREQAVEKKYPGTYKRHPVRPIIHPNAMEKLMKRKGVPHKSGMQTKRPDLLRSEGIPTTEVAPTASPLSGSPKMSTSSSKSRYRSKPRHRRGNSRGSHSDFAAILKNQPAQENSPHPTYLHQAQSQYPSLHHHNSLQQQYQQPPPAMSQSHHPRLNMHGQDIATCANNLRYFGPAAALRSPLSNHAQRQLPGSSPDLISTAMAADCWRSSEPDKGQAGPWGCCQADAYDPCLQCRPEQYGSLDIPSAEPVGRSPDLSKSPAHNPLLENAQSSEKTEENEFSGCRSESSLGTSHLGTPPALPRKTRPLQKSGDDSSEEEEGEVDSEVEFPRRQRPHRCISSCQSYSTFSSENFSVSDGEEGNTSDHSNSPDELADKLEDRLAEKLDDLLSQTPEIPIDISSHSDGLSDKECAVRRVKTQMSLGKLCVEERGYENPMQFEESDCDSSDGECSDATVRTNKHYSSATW

[19] = molecular target: T1, Muscarinic acetylcholine receptor M5 (Homo sapiens) (UniProt P08912); conditions: Compound concentration 10.0 uM
T1 sequence (whole entry): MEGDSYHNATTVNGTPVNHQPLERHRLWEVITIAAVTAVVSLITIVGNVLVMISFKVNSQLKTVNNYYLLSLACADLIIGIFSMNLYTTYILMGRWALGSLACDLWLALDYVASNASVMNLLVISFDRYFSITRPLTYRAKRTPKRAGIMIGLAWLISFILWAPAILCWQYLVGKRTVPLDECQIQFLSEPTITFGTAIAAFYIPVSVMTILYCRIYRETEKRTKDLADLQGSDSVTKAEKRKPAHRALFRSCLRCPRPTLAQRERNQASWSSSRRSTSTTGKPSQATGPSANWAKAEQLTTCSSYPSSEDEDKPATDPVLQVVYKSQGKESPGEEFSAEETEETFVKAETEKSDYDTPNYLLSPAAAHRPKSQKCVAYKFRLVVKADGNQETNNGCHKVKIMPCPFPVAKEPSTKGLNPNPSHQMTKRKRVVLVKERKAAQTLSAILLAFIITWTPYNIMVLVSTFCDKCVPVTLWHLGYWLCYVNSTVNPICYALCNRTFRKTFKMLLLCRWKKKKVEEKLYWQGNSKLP

[20] = molecular target: Dual specificity mitogen-activated protein kinase kinase 5 (Homo sapiens) (UniProt Q13163); conditions: Compound concentration 1000.0 nM
[21] = molecular target: Serine/threonine-protein kinase 38-like (Homo sapiens) (UniProt Q9Y2H1); conditions: Compound concentration 1000.0 nM
Chain of Serine/threonine-protein kinase 38-like (Homo sapiens) (Q9Y2H1 2-464 limits assumed): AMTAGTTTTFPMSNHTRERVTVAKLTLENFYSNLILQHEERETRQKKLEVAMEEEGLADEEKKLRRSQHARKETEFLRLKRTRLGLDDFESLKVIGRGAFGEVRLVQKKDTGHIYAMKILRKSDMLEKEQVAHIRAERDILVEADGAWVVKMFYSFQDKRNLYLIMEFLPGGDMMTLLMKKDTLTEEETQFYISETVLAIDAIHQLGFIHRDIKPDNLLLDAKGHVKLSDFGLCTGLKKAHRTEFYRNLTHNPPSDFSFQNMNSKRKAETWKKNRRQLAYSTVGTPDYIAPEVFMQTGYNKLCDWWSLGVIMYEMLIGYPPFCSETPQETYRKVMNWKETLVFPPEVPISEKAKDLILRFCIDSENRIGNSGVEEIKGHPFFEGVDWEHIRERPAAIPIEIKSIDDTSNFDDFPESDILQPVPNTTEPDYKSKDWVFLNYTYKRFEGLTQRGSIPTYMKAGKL

[22] = molecular target: Dual specificity mitogen-activated protein kinase kinase 1 (Homo sapiens) (UniProt Q02750); conditions: Compound concentration 1000.0 nM
Chain of Dual specificity mitogen-activated protein kinase kinase 1 (Homo sapiens) (Q02750 whole entry): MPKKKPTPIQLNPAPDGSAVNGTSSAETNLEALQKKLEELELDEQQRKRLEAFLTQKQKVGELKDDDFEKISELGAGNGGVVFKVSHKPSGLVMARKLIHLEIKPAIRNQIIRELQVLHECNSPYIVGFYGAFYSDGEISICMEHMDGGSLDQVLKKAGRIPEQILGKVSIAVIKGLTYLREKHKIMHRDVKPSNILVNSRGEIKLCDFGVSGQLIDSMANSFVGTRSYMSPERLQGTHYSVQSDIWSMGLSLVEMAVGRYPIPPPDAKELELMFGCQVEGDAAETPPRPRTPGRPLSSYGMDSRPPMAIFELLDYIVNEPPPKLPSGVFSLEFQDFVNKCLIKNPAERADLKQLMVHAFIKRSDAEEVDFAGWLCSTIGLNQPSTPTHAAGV

[23] = system: Epidermal growth factor receptor (Homo sapiens), P00533 [UNDEFINED MUTATION]; conditions: Compound concentration 1000.0 nM
[24] = molecular target: Serine/threonine-protein kinase MRCK gamma (Homo sapiens) (UniProt Q6DT37); conditions: Compound concentration 1000.0 nM
[25] = molecular target: Mitogen-activated protein kinase kinase kinase 12 (Homo sapiens) (UniProt Q12852); conditions: Compound concentration 1000.0 nM
[26] = molecular target: T2, Alpha-1D adrenergic receptor (Homo sapiens) (UniProt P25100); conditions: Compound concentration 10.0 uM
T2 sequence (whole entry): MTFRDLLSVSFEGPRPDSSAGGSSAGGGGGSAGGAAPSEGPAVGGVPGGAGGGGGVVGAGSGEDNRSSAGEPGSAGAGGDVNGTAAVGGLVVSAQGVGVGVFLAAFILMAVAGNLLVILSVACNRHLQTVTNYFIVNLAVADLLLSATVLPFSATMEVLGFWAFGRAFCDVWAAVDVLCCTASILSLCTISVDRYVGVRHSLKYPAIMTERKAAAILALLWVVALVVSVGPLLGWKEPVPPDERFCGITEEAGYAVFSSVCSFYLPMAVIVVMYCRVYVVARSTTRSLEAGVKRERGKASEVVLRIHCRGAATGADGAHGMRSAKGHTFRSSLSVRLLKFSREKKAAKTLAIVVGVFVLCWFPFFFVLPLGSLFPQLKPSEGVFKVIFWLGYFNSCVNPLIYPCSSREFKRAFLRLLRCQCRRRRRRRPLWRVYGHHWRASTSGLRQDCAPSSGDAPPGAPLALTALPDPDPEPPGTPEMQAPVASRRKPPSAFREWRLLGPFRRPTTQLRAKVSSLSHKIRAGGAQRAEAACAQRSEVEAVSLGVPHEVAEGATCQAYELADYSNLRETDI

[27] = molecular target: Mitogen-activated protein kinase 4 (Homo sapiens) (UniProt P31152); conditions: Compound concentration 1000.0 nM
[28] = molecular target: Sodium-dependent noradrenaline transporter (Homo sapiens) (UniProt P23975); conditions: Compound concentration 10.0 uM
[29] = molecular target: Serine/threonine-protein kinase PAK 5 (Homo sapiens) (UniProt Q9P286); conditions: Compound concentration 1000.0 nM
Chain of Serine/threonine-protein kinase PAK 5 (Homo sapiens) (Q9P286 whole entry, looked up): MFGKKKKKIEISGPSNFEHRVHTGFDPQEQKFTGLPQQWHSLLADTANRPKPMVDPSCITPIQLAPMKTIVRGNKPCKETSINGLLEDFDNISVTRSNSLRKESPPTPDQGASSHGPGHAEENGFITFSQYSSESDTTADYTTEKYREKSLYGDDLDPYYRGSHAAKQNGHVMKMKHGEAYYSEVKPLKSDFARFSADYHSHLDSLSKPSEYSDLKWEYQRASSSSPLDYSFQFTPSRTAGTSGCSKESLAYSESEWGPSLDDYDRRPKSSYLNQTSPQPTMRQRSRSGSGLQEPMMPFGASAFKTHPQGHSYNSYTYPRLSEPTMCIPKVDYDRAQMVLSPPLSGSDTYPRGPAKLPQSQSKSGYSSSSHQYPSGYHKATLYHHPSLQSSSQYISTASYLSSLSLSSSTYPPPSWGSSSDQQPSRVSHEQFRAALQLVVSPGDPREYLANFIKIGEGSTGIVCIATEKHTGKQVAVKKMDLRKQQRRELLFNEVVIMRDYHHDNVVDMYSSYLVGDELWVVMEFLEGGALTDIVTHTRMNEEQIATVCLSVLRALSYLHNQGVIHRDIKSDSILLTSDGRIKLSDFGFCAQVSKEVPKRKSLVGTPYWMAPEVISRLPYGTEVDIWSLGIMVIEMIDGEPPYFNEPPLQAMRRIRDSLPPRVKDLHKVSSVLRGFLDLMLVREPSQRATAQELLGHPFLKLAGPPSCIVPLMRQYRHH

[30] = molecular target: Serine/threonine-protein kinase Sgk2 (Homo sapiens) (UniProt Q9HBY8); conditions: Compound concentration 1000.0 nM
Chain of Serine/threonine-protein kinase Sgk2 (Homo sapiens) (Q9HBY8 whole entry): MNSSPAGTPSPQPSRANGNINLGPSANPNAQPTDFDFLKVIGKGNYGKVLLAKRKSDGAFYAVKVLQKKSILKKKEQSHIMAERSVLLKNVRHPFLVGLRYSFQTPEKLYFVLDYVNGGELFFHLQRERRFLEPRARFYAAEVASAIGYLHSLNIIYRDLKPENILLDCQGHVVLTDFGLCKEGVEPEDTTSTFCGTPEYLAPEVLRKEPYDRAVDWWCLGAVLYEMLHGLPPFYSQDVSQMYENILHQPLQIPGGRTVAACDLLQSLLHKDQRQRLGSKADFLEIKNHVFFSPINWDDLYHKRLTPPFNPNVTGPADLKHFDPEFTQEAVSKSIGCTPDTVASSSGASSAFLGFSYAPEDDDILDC

Chain of Tyrosine-protein kinase BTK (Homo sapiens) (Q06187 whole entry): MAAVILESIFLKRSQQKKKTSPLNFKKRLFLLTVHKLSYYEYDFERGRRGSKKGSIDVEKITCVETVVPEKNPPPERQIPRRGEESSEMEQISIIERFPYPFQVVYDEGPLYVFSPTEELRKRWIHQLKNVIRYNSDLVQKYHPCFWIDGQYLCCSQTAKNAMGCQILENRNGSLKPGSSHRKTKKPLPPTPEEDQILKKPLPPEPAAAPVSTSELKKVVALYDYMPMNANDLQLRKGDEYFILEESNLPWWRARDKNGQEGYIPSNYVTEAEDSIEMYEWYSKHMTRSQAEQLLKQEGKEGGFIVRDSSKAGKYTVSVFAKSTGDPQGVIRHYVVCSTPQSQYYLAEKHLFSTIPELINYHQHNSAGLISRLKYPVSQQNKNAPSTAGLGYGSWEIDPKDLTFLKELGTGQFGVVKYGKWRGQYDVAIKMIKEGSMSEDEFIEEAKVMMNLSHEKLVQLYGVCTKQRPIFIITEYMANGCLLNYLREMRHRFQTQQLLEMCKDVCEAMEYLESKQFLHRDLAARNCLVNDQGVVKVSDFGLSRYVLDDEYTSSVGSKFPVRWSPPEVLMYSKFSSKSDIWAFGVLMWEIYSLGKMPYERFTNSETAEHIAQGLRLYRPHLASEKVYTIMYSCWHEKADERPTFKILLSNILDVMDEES

`O=C(NCc1ncc(C(F)(F)F)cc1Cl)c1ccc2c(c1)C1(CCS(=O)(=O)CC1)[C@H](C1CC1)N2S(=O)(=O)c1ccc(F)cc1` [BAY-784] showed a residual activity [1] of 100%, a residual activity [2] of 64% and a residual activity [3] of 73%. It also gave a residual activity [4] of 49%, a residual activity [5] of 78% and a residual activity [6] of 100%. For the same compound, the inhibition [7] was 14.6%, the residual activity [8] was 100% and the residual activity [9] was 100%. The residual activity [10] was 82%, the residual activity [11] was 100% and the residual activity [12] was 100%. For the same compound, the residual activity [13] was 96%, the residual activity [14] was 100% and the residual activity [15] was 92%. For the same compound, the residual activity [16] was 86%, the residual activity [17] was 78% and the residual activity [18] was 0%. The inhibition [19] was -6.43%, the residual activity [20] was 69% and the residual activity [21] was 91%. The residual activity [22] was 98%, the residual activity [23] was 97% and the residual activity [24] was 100%. It also gave a residual activity [25] of 82%, an inhibition [26] of 4.13% and a residual activity [27] of 91%. The inhibition [28] was 1.03%, the residual activity [29] was 100% and the residual activity [30] was 83%.

`O=C(NCc1ncc(C(F)(F)F)cc1Cl)c1ccc2c(c1)C1(CCS(=O)(=O)CC1)[C@@H](C1CC1)N2S(=O)(=O)c1ccc(F)cc1` [BAY-786] showed a residual activity [1] of 83%, a residual activity [2] of 73% and a residual activity [3] of 69%. For the same compound, the residual activity [4] was 100%, the residual activity [5] was 90% and the residual activity [6] was 82%. It also gave an inhibition [7] of 16.5%, a residual activity [8] of 97% and a residual activity [9] of 87%. For the same compound, the residual activity [10] was 100%, the residual activity [11] was 100% and the residual activity [12] was 100%. For the same compound, the residual activity [13] was 84%, the residual activity [14] was 94% and the residual activity [15] was 46%. For the same compound, the residual activity [16] was 89%, the residual activity [17] was 78% and the residual activity [18] was 0%. The inhibition [19] was -1.92%, the residual activity [20] was 90% and the residual activity [21] was 94%. It also gave a residual activity [22] of 91%, a residual activity [23] of 69% and a residual activity [24] of 93%. The residual activity [25] was 87%, the inhibition [26] was -3.69% and the residual activity [27] was 89%. For the same compound, the inhibition [28] was 3.76%, the residual activity [29] was 74% and the residual activity [30] was 77%.

From ChEMBL document CHEMBL4507266, “Data for DCP probe BAY-784” (2021)
